This is an account of results in patent US20200046763A1, “APPLICATION OF GSK3 INHIBITOR IN PREPARING A DRUG TO TREAT NIEMANN-PICK DISEASE TYPE C” (WUXI HANQIANG PHARMACEUTICAL TECHNOLOGY CO., LTD., priority 2016, published 2020).

In one test the test system is NPC1 KO mice. Nature of the test: Effect of GSK3 inhibitor on NPC1 KO mouse model. The test is classed as in vivo. The following applies: LiCl 85 mg/kg or CHIR99021 20 mg/kg intraperitoneally daily from first week (b9: or same dose intragastrically). The method, then: NPC1 KO mice are divided into three groups (a control group, a LiCl treatment group and a CHIR99021 treatment group), with five mice in each group. From the first week after birth, the mice in the LiCl treatment group and the CHIR99021 treatment group are intraperitoneally injected with LiCl (85 mg/kg) and CHIR99021 (20 mg/kg) per day respectively, the mice in the control group are intraperitoneally injected with normal saline, and the survival rate of the mice is continuously observed.
An NPC1 gene knock-out (KO) mouse preparation method: the NPC1 genes are knocked out by CRISPY_Cas9 to obtain NPC1−/−mice.
The NPC mouse model is prepared according to the method of Embodiment II, and LiCl (the dose of 85 mg/kg) or CRIR99021 (the dose of 20 mg/kg) is intraperitoneally injected every day from the first week.
The testing indexes are phenotypes of hematological and neurological systems, as well as symptoms and signs.

Test [1] concerns NPC1 KD or NPC1 KO hematopoietic and neural stem cells. As to the kind of experiment: Effect of GSK3 inhibitor on NP-C cell model (proliferation, stem cell self-renewal and differentiation). The test is classed as cell-based, mouse. The following applies: for self-renewal and differentiation capacities of hematopoietic and neural stem cells: NPC1 KD or NPC1 KO cells, LiCl 10 MM, CHIR99021 3 uM. The method, then: 2) NPC1 gene expression knock-down (KD) human and mouse cells: lentivirus expressing human and mouse NPC1 shRNA is prepared, lentivirus infects human embryonic kidney 293T and Mouse Embryonic Fibroblast (MEF), positive infected cells are screened by puromycin, and qPCR and western blotting validate the effect of NPC1 gene expression knock-down, to obtain the NPC1 KD cell model.
According to the method of Embodiment I, NPC model cells are prepared, and hematopoietic stem cells and neural stem cells of the NPC1 KO mice are isolated.
Experimental procedures and measurement indexes are: treatment of NPC1 KD and NPC1 KO cells with GSK3 specific inhibitors, i.e., LiCl and CHIR99021, and observation of changes in cell proliferation and stern cell self-renewal and differentiation.

Setting [2] is: NPC1 KD hematopoietic stem cells, 10 mM LiCl.

In the case of `Cc1c[nH]c(-c2cnc(NCCNc3ccc(C#N)cn3)nc2-c2ccc(Cl)cc2Cl)n1` [CHIR99021], in the test with NPC1 KO mice, the “hematopoietic function of the mice” value is recorded as “significantly improved” and the neurodegenerative change symptoms entry is “significantly improved”. The “self-renewal and differentiation capacities of hematopoietic and neural stem cells” value in test [1] is recorded as “significantly improve”.

In the case of `[Cl-].[Li+]` [LiCl], in the test on NPC1 KO mice, the “hematopoietic function of the mice” value is on record as “significantly improved” and the neurodegenerative change symptoms result is reported as “significantly improved”. For the same compound, in test [1] (setting [2]), the “increase of colony formation capacity” value was no less than 30% and the “increase of proliferation capacity of hematopoietic stem cells” value is recorded as no less than 50%. Besides, the “self-renewal and differentiation capacities of hematopoietic and neural stem cells” value in test [1] is “significantly improve”.
